This note sets out measurements from ChEMBL document CHEMBL1201862, “PubChem BioAssay data set” (2004).

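Method: 48-hour compound exposure of cells in 96-well plates, five concentrations, linear interpolation of endpoints. At the GI50, growth is halved.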 The source made the active and inactive calls. No stated cut-off is given here; in the data, active = GI50 up to about 1.1 µM and inactive = higher. Some results are limits rather than exact numbers.

Some test systems named below: UACC-62; RPMI-8226; CCRF-CEM; OVCAR-8; SF-295; SK-MEL-5; MOLT-4; MCF7; HCT-15; U-251; UO-31; CAKI-1; SK-MEL-28; LOX IMVI; A498; SNB-19; NCI-H226; HOP-92; SK-MEL-2; SR.
Test in all cases: NCI anticancer screen, dose series, 48 h

Consider `CC(=O)NC(CCCCNC(=O)OC(C)(C)C)C(=O)O` (stereo unspecified), for which the GI50 in the experiment on UACC-62, with RPMI-8226, in the experiment with CCRF-CEM, in the experiment with OVCAR-8, in the experiment with SF-295 and with SK-MEL-5 was > 100 µM (inactive) each time. Besides, the GI50 is > 100 µM (inactive) with MOLT-4; > 100 µM (inactive) with MCF7; greater than 100 µM in the experiment with HCT-15; > 100 µM (inactive) in the experiment with U-251; > 100 µM (inactive) with UO-31; 63.4 µM (inactive) in the experiment on CAKI-1. Moreover, the GI50 with SK-MEL-28 is > 100 µM (inactive); in the experiment with LOX IMVI, > 100 µM (inactive); with A498 it was 26.1 µM (inactive); in the experiment with SNB-19 it was > 100 µM (inactive).
For the molecule `Oc1nc2c(c(-c3ccccc3Cl)n1)COC/C2=C\c1ccccc1Cl`, the GI50 is > 100 µM (inactive) with UACC-62; > 100 µM (inactive) with NCI-H226; > 100 µM (inactive) in the experiment with RPMI-8226; 49.3 µM (inactive) in the experiment on CCRF-CEM; > 100 µM (inactive) with OVCAR-8; 94.8 µM (inactive) in the experiment on SF-295. For the same molecule, the GI50 in the experiment with SK-MEL-5 was > 100 µM (inactive); in the experiment with HOP-92 it was > 100 µM (inactive); in the experiment on MOLT-4, 55.5 µM (inactive); in the experiment with MCF7, 65.9 µM (inactive); in the experiment with HCT-15 it was greater than 100 µM; in the experiment on U-251, > 100 µM (inactive). Besides, the GI50 is 80.9 µM (inactive) with UO-31; > 100 µM (inactive) in the experiment on SK-MEL-2; > 100 µM (inactive) with CAKI-1; > 100 µM (inactive) in the experiment with SK-MEL-28; > 100 µM (inactive) with LOX IMVI; > 100 µM (inactive) in the experiment with A498. Also, the GI50 in the experiment with SNB-19 was > 100 µM (inactive).
Take `O=C1OC2CC=CC1C2` (stereo unspecified): the GI50 in the experiment with UACC-62, in the experiment with NCI-H226, in the experiment on RPMI-8226, in the experiment with CCRF-CEM, in the experiment on OVCAR-8 and in the experiment on SF-295 was > 100 µM (inactive) throughout. Moreover, the GI50 in the experiment with SK-MEL-5 is > 100 µM (inactive); in the experiment with HOP-92, > 100 µM (inactive); in the experiment on MOLT-4 it was > 100 µM (inactive); in the experiment with MCF7, > 100 µM (inactive); in the experiment with HCT-15, greater than 100 µM; with U-251, > 100 µM (inactive). Besides, the GI50 in the experiment on UO-31, in the experiment with SK-MEL-2, with SK-MEL-28, in the experiment on LOX IMVI, in the experiment on A498 and in the experiment on SNB-19 was > 100 µM (inactive) each time.
Take `CN(C)C(=O)/N=C1\SC(=N\c2ccccc2)/C(=N/c2ccccc2)N1c1ccc([N+](=O)[O-])cc1`: the GI50 with UACC-62 is 77.4 µM (inactive); in the experiment with SR, > 100 µM (inactive); with NCI-H226 it was > 100 µM (inactive); with RPMI-8226, > 100 µM (inactive); with CCRF-CEM it was > 100 µM (inactive); in the experiment on OVCAR-8, > 100 µM (inactive). In addition, the GI50 was > 100 µM (inactive) in the experiment on SF-295; 49.8 µM (inactive) in the experiment with SK-MEL-5; > 100 µM (inactive) in the experiment with MOLT-4; 84.7 µM (inactive) in the experiment on MCF7; greater than 100 µM with HCT-15; > 100 µM (inactive) in the experiment with U-251. Further, the GI50 in the experiment on UO-31, with SK-MEL-2, with CAKI-1, with SK-MEL-28, in the experiment with A498 and in the experiment on SNB-19 was > 100 µM (inactive) in each case.
For `Nc1ncnc2c1nnn2C1OC(CO)C(O)C1O` (stereo unspecified), the GI50 was 5.7 µM (inactive) in the experiment with UACC-62; 3.71 µM (inactive) in the experiment on NCI-H226; 1.88 µM (inactive) in the experiment with RPMI-8226; 3.23 µM (inactive) in the experiment on CCRF-CEM; 2.87 µM (inactive) with OVCAR-8; 30.1 µM (inactive) in the experiment with SF-295. For the same molecule, the GI50 in the experiment with SK-MEL-5 is 4 µM (inactive); in the experiment with HOP-92, 7.14 µM (inactive); in the experiment on MOLT-4, 5.41 µM (inactive); in the experiment with MCF7 it was 2.48 µM (inactive); in the experiment with HCT-15, 2.54 µM; with U-251, 7.28 µM (inactive). Also, the GI50 in the experiment with UO-31 was 2.07 µM (inactive); in the experiment on SK-MEL-2, 1.3 µM (inactive); in the experiment on CAKI-1, 4.5 µM (inactive); with SK-MEL-28 it was 12.4 µM (inactive); with LOX IMVI it was 1.8 µM (inactive); with A498 it was 3.94 µM (inactive). The GI50 in the experiment with SNB-19 is 5.66 µM (inactive).
For `CCNC(=O)C(C)C1CCC2(C)C=CC(=O)C(C)=C2C1O` (stereo unspecified), the GI50 with UACC-62 was > 100 µM (inactive); in the experiment on NCI-H226, > 100 µM (inactive); in the experiment on RPMI-8226 it was > 100 µM (inactive); in the experiment on CCRF-CEM, > 100 µM (inactive); in the experiment on OVCAR-8, > 100 µM (inactive); with SF-295 it was > 93.5 µM (inactive). In addition, the GI50 in the experiment on SK-MEL-5 is > 100 µM (inactive); with HOP-92 it was > 100 µM (inactive); in the experiment with MOLT-4, > 100 µM (inactive); in the experiment with MCF7, > 100 µM (inactive); in the experiment on HCT-15 it was greater than 100 µM; in the experiment on U-251, > 76.4 µM (inactive). For the same molecule, the GI50 was > 73.6 µM (inactive) in the experiment with UO-31; > 100 µM (inactive) in the experiment with SK-MEL-2; > 100 µM (inactive) in the experiment on CAKI-1; > 100 µM (inactive) with SK-MEL-28; > 91 µM (inactive) in the experiment with LOX IMVI; > 100 µM (inactive) in the experiment with A498. For the same molecule, the GI50 with SNB-19 is > 100 µM (inactive).
Turning to `CC1=CC(O)C(O)C2(C)C1CC1OC(=O)C(O)C3C(C)C(O)C4(O)OCC13C42` (stereo unspecified), the GI50 was 84.3 µM (inactive) in the experiment with UACC-62; 41.3 µM (inactive) in the experiment on NCI-H226; 16.9 µM (inactive) with RPMI-8226; 7.05 µM (inactive) with CCRF-CEM; 32.1 µM (inactive) in the experiment on OVCAR-8; 28.8 µM (inactive) in the experiment with SF-295. For the same molecule, the GI50 in the experiment on SK-MEL-5 was 29.4 µM (inactive); in the experiment with HOP-92 it was 6.03 µM (inactive); with MOLT-4 it was 12.2 µM (inactive); with MCF7 it was 91.6 µM (inactive); in the experiment with HCT-15, 335 µM; with U-251, 62.8 µM (inactive). Moreover, the GI50 was 110 µM (inactive) in the experiment on UO-31; 59.2 µM (inactive) in the experiment with SK-MEL-2; 32.8 µM (inactive) in the experiment with CAKI-1; 118 µM (inactive) in the experiment with SK-MEL-28; 37.8 µM (inactive) in the experiment on LOX IMVI; 17.9 µM (inactive) with A498. The GI50 in the experiment with SNB-19 is 13.7 µM (inactive).
In the case of `CSCCC(NOC(=O)Cc1ccccc1)P(=O)(O)c1ccccc1` (stereo unspecified), the GI50 in the experiment with SR, in the experiment with NCI-H226, with RPMI-8226, in the experiment on CCRF-CEM, in the experiment with OVCAR-8 and in the experiment with SF-295 was > 100 µM (inactive) in each case. The GI50 with SK-MEL-5 is > 100 µM (inactive); in the experiment with HOP-92, > 100 µM (inactive); in the experiment on MOLT-4, > 100 µM (inactive); in the experiment on MCF7, > 100 µM (inactive); with HCT-15, greater than 100 µM; in the experiment on U-251, > 100 µM (inactive). The GI50 with UO-31, with SK-MEL-2, in the experiment with CAKI-1, with SK-MEL-28, in the experiment on LOX IMVI and in the experiment on SNB-19 was > 100 µM (inactive) throughout.
`Cc1cn(C2CC(O)C(Cn3cc(Cn4nc(Br)c(=O)[nH]c4=O)nn3)O2)c(=O)[nH]c1=O` (stereo unspecified): the GI50 in the experiment on UACC-62 was > 100 µM (inactive); with NCI-H226, > 100 µM (inactive); in the experiment with RPMI-8226, > 100 µM (inactive); in the experiment with CCRF-CEM it was 0.332 µM (active); in the experiment on OVCAR-8, > 100 µM (inactive); in the experiment with SF-295, > 100 µM (inactive). The GI50 in the experiment on SK-MEL-5 is > 100 µM (inactive); with MOLT-4 it was > 100 µM (inactive); with MCF7 it was > 100 µM (inactive); with HCT-15 it was greater than 100 µM; in the experiment with U-251, > 100 µM (inactive); with UO-31, > 100 µM (inactive). For the same molecule, the GI50 in the experiment on SK-MEL-2, with CAKI-1, with SK-MEL-28, in the experiment with A498 and in the experiment on SNB-19 was > 100 µM (inactive) throughout.
`CC(C)[C@](O)(C(=O)OCC1CC[N+]2([O-])CC[C@@H](O)C12)[C@H](C)O` (stereo partly specified): the GI50 in the experiment on UACC-62, with NCI-H226, in the experiment with RPMI-8226, in the experiment on CCRF-CEM, with OVCAR-8 and in the experiment on SF-295 was > 375 µM (inactive) each time. Also, the GI50 in the experiment on SK-MEL-5 is > 334 µM (inactive); in the experiment on HOP-92, > 375 µM (inactive); in the experiment on MOLT-4 it was > 375 µM (inactive); in the experiment with MCF7, > 375 µM (inactive); with HCT-15, greater than 375 µM; with U-251, > 375 µM (inactive). In addition, the GI50 was > 375 µM (inactive) in the experiment on UO-31; 62.2 µM (inactive) in the experiment with SK-MEL-2; > 375 µM (inactive) in the experiment with CAKI-1; > 375 µM (inactive) in the experiment on SK-MEL-28; > 142 µM (inactive) in the experiment on LOX IMVI; > 59.4 µM (inactive) with A498. Further, the GI50 in the experiment on SNB-19 is > 375 µM (inactive).
As to `COc1cc2c(oc(=O)c3cc4cc([Si](C)(C)C)oc4c(OC)c32)c2cccc(O)c12`, the GI50 in the experiment with UACC-62, in the experiment with SR, in the experiment on NCI-H226, in the experiment on RPMI-8226, in the experiment on CCRF-CEM and with OVCAR-8 was > 100 µM (inactive) in each case. Moreover, the GI50 was > 100 µM (inactive) in the experiment on SF-295; > 100 µM (inactive) with SK-MEL-5; > 100 µM (inactive) with HOP-92; > 100 µM (inactive) with MOLT-4; greater than 100 µM in the experiment on HCT-15; > 100 µM (inactive) in the experiment on U-251. Besides, the GI50 is > 100 µM (inactive) in the experiment with UO-31; > 100 µM (inactive) with SK-MEL-2; > 100 µM (inactive) in the experiment with CAKI-1; > 100 µM (inactive) in the experiment with SK-MEL-28; > 100 µM (inactive) in the experiment with LOX IMVI; 78.9 µM (inactive) in the experiment with A498. Also, in the experiment on SNB-19, the GI50 was > 100 µM (inactive).
